# Data from the NIST ThermoML archive (doi:10.1021/acs.jced.8b00176).
# Numbers after ± are expanded uncertainties.
# Test: xn = mol fraction of the nth substance listed
# Conditions: 100 kPa, Liquid; for viscosity: Falling or rolling sphere viscometry; for speed of sound: Frequency=3 MHz, Single path-length method; for mass density: Vibrating tube method
smiles,measurement,setting,value
CC#N [acetonitrile] + CN(C)C=O,viscosity,"298.15 K, x2 = 0",0.34 mPa·s
same,viscosity,"298.15 K, x2 = 0.0989",0.4 mPa·s
same,viscosity,"298.15 K, x2 = 0.1916",0.44 ± 0.2 mPa·s
same,viscosity,"298.15 K, x2 = 0.2925",0.48 ± 0.2 mPa·s
same,viscosity,"298.15 K, x2 = 0.3932",0.54 ± 0.2 mPa·s
same,viscosity,"298.15 K, x2 = 0.5029",0.61 ± 0.2 mPa·s
same,viscosity,"298.15 K, x2 = 0.6002",0.65 ± 0.2 mPa·s
same,viscosity,"298.15 K, x2 = 0.6931",0.69 ± 0.2 mPa·s
same,viscosity,"298.15 K, x2 = 0.7926",0.75 ± 0.2 mPa·s
same,viscosity,"298.15 K, x2 = 0.8996",0.79 ± 0.2 mPa·s
same,speed of sound,"298.15 K, x2 = 0",1278.5 ± 2.2 m/s
same,speed of sound,"298.15 K, x2 = 0.0989",1302.5 ± 2.2 m/s
same,speed of sound,"298.15 K, x2 = 0.1916",1322 ± 2.2 m/s
same,speed of sound,"298.15 K, x2 = 0.2925",1339.6 ± 2.2 m/s
same,speed of sound,"298.15 K, x2 = 0.3932",1361.6 ± 2.2 m/s
same,speed of sound,"298.15 K, x2 = 0.5029",1377.5 ± 2.2 m/s
same,speed of sound,"298.15 K, x2 = 0.6002",1395.9 ± 2.2 m/s
same,speed of sound,"298.15 K, x2 = 0.6931",1411.4 ± 2.2 m/s
same,speed of sound,"298.15 K, x2 = 0.7926",1429.2 ± 2.2 m/s
same,speed of sound,"298.15 K, x2 = 0.8996",1442.8 ± 2.2 m/s
same,mass density,"298.15 K, x2 = 0",776.714 ± 2 kg/m3
same,mass density,"298.15 K, x2 = 0.0989",802.565 ± 2 kg/m3
same,mass density,"298.15 K, x2 = 0.1916",826.376 ± 2 kg/m3
same,mass density,"298.15 K, x2 = 0.2925",844.614 ± 2 kg/m3
same,mass density,"298.15 K, x2 = 0.3932",865.725 ± 2 kg/m3
same,mass density,"298.15 K, x2 = 0.5029",880.889 ± 2 kg/m3
same,mass density,"298.15 K, x2 = 0.6002",895.421 ± 2 kg/m3
same,mass density,"298.15 K, x2 = 0.6931",907.546 ± 2 kg/m3
same,mass density,"298.15 K, x2 = 0.7926",922.026 ± 2 kg/m3
same,mass density,"298.15 K, x2 = 0.8996",932.676 ± 2 kg/m3
same,viscosity,"303.15 K, x2 = 0",0.32 mPa·s
same,viscosity,"303.15 K, x2 = 0.0989",0.39 mPa·s
same,viscosity,"303.15 K, x2 = 0.1916",0.42 ± 0.2 mPa·s
same,viscosity,"303.15 K, x2 = 0.2925",0.46 ± 0.2 mPa·s
same,viscosity,"303.15 K, x2 = 0.3932",0.51 ± 0.2 mPa·s
same,viscosity,"303.15 K, x2 = 0.5029",0.57 ± 0.2 mPa·s
same,viscosity,"303.15 K, x2 = 0.6002",0.61 ± 0.2 mPa·s
same,viscosity,"303.15 K, x2 = 0.6931",0.65 ± 0.2 mPa·s
same,viscosity,"303.15 K, x2 = 0.7926",0.7 ± 0.2 mPa·s
same,viscosity,"303.15 K, x2 = 0.8996",0.75 ± 0.2 mPa·s
same,speed of sound,"303.15 K, x2 = 0",1258.4 ± 2.2 m/s
same,speed of sound,"303.15 K, x2 = 0.0989",1282.7 ± 2.2 m/s
same,speed of sound,"303.15 K, x2 = 0.1916",1302.3 ± 2.2 m/s
same,speed of sound,"303.15 K, x2 = 0.2925",1320.1 ± 2.2 m/s
same,speed of sound,"303.15 K, x2 = 0.3932",1342.2 ± 2.2 m/s
same,speed of sound,"303.15 K, x2 = 0.5029",1358.1 ± 2.2 m/s
same,speed of sound,"303.15 K, x2 = 0.6002",1376.6 ± 2.2 m/s
same,speed of sound,"303.15 K, x2 = 0.6931",1392 ± 2.2 m/s
same,speed of sound,"303.15 K, x2 = 0.7926",1409.9 ± 2.2 m/s
same,speed of sound,"303.15 K, x2 = 0.8996",1423.3 ± 2.2 m/s
same,mass density,"303.15 K, x2 = 0",771.289 ± 2 kg/m3
same,mass density,"303.15 K, x2 = 0.0989",797.299 ± 2 kg/m3
same,mass density,"303.15 K, x2 = 0.1916",821.229 ± 2 kg/m3
same,mass density,"303.15 K, x2 = 0.2925",839.435 ± 2 kg/m3
same,mass density,"303.15 K, x2 = 0.3932",860.639 ± 2 kg/m3
same,mass density,"303.15 K, x2 = 0.5029",875.938 ± 2 kg/m3
same,mass density,"303.15 K, x2 = 0.6002",890.518 ± 2 kg/m3
same,mass density,"303.15 K, x2 = 0.6931",902.756 ± 2 kg/m3
same,mass density,"303.15 K, x2 = 0.7926",917.22 ± 2 kg/m3
same,mass density,"303.15 K, x2 = 0.8996",927.901 ± 2 kg/m3
same,viscosity,"308.15 K, x2 = 0",0.31 mPa·s
same,viscosity,"308.15 K, x2 = 0.0989",0.37 mPa·s
same,viscosity,"308.15 K, x2 = 0.1916",0.4 mPa·s
same,viscosity,"308.15 K, x2 = 0.2925",0.44 ± 0.2 mPa·s
same,viscosity,"308.15 K, x2 = 0.3932",0.49 ± 0.2 mPa·s
same,viscosity,"308.15 K, x2 = 0.5029",0.54 ± 0.2 mPa·s
same,viscosity,"308.15 K, x2 = 0.6002",0.58 ± 0.2 mPa·s
same,viscosity,"308.15 K, x2 = 0.6931",0.61 ± 0.2 mPa·s
same,viscosity,"308.15 K, x2 = 0.7926",0.66 ± 0.2 mPa·s
same,viscosity,"308.15 K, x2 = 0.8996",0.71 ± 0.2 mPa·s
same,speed of sound,"308.15 K, x2 = 0",1238.2 ± 2.2 m/s
same,speed of sound,"308.15 K, x2 = 0.0989",1262.9 ± 2.2 m/s
same,speed of sound,"308.15 K, x2 = 0.1916",1282.5 ± 2.2 m/s
same,speed of sound,"308.15 K, x2 = 0.2925",1300.5 ± 2.2 m/s
same,speed of sound,"308.15 K, x2 = 0.3932",1322.6 ± 2.2 m/s
same,speed of sound,"308.15 K, x2 = 0.5029",1338.6 ± 2.2 m/s
same,speed of sound,"308.15 K, x2 = 0.6002",1357.2 ± 2.2 m/s
same,speed of sound,"308.15 K, x2 = 0.6931",1372.6 ± 2.2 m/s
same,speed of sound,"308.15 K, x2 = 0.7926",1390.5 ± 2.2 m/s
same,speed of sound,"308.15 K, x2 = 0.8996",1404 ± 2.2 m/s
same,mass density,"308.15 K, x2 = 0",765.833 ± 2 kg/m3
same,mass density,"308.15 K, x2 = 0.0989",792.024 ± 2 kg/m3
same,mass density,"308.15 K, x2 = 0.1916",816.008 ± 2 kg/m3
same,mass density,"308.15 K, x2 = 0.2925",834.219 ± 2 kg/m3
same,mass density,"308.15 K, x2 = 0.3932",855.56 ± 2 kg/m3
same,mass density,"308.15 K, x2 = 0.5029",870.924 ± 2 kg/m3
same,mass density,"308.15 K, x2 = 0.6002",885.607 ± 2 kg/m3
same,mass density,"308.15 K, x2 = 0.6931",897.887 ± 2 kg/m3
same,mass density,"308.15 K, x2 = 0.7926",912.402 ± 2 kg/m3
same,mass density,"308.15 K, x2 = 0.8996",923.153 ± 2 kg/m3
